Experimental data reported in US10173968B2, “Bishydrazone-based antifungal agents” (University of Kentucky Research Foundation, priority 2016, dated 2019).
Read-outs that look alike come from different tables or passages of the source.

What was measured:
B. subtilis 168 = experiment: Antibacterial MIC, double-dilution method; format: cell-based; conditions: Bacillus subtilis, strain A, Gram-positive
Outline: (§1)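 Step one: single-point test of each compound at 500 μM. Step two: MIC determination across doubling dilutions.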

VRE = experiment: Antibacterial MIC, double-dilution method; format: cell-based; conditions: Enterococcus, strain D, Gram-positive, converted from μM, read-out: MIC
Outline: as §1

E. coli MC1061 = experiment: Antibacterial MIC, double-dilution method; format: cell-based; conditions: Escherichia coli, strain G, Gram-negative, read-out: MIC
Outline: as §1

M. smegmatis MC2-155 = experiment: Antibacterial MIC, double-dilution method; format: cell-based; conditions: Mycolicibacterium smegmatis, MC2155, strain K, mycobacterial; converted from μM; read-out: MIC
Outline: as §1

S. enterica ATCC 14028 = experiment: Antibacterial MIC, double-dilution method; format: cell-based; conditions: Salmonella enterica, ATCC14028, strain J, Gram-negative, read-out: MIC
Outline: as §1

[1] = tested on: L. monocytogenes ATCC 19115; experiment: Antibacterial MIC, double-dilution method; format: cell-based; conditions: Listeria monocytogenes, ATCC19115, strain B, Gram-positive, read-out: MIC
Outline: as §1

P. aeruginosa ATCC 27853 = experiment: Antibacterial MIC, double-dilution method; format: cell-based; conditions: Pseudomonas aeruginosa, ATCC27853, strain I, Gram-negative, read-out: MIC
Outline: as §1

K. pneumoniae ATCC 27736 = experiment: Antibacterial MIC, double-dilution method; format: cell-based; conditions: Klebsiella pneumoniae, ATCC27736, strain H, Gram-negative, read-out: MIC
Outline: as §1

MRSA = experiment: Antibacterial MIC, double-dilution method; format: cell-based; conditions: Staphylococcus aureus, strain C, Gram-positive, read-out: MIC
Outline: as §1

C. albicans ATCC 10231 [2] = experiment: Intracellular ROS production, DCFH-DA fluorescence assay; format: cell-based, Candida albicans; conditions: at 1× and 2× MIC values, 1 h at 35° C.
Description: We used the 2′,7′-dichlorodihydrofluorescein diacetate (DCFH-DA) dye as a probe to measure the production of ROS in yeast cells upon treatment with our compounds. DCFH-DA can easily cross the cell membranes and be hydrolyzed by cellular esterases to the non-fluorescent 2′,7′-dichlorodihydrofluorescein (DCFH), which can further be oxidized to the highly fluorescent 2′,7′-dichlorofluorescein (DCF) by the intracellular ROS. Five mL of RPMI 1640 medium were inoculated using a single colony of C. albicans ATCC 10231 (strain A) in a Falcon tube and grown overnight at 35° C. at 200 rpm. The overnight culture was diluted by adding 200 μL of yeast cells to 800 μL of the same medium. […] H2O2 at 1 mM was also used as a positive control. Cells were centrifuged and washed twice with PBS buffer (pH 7.2). Cells were resuspended in the same buffer and incubated with DCFH-DA (20 μg/mL) for 30 min in the dark. Afterwards, cells were centrifuged and washed with PBS buffer to remove excess DCFH-DA. Glass slides with 10-15 μL of each mixture were prepared and observed in bright field and fluorescence modes (FITC filter set, excitation and emission wavelengths of 488 and 512 nm, respectively) using a Zeiss Axovert 200M fluorescence microscope (FIG. 3).

C. albicans ATCC 2310 = experiment: Antifungal MIC, CLSI M27-A3 microbroth dilution; format: cell-based, Candida albicans; conditions: Candida albicans, ATCC2310; C. albicans ATCC 2310, susceptible to FLC, ITC, and VOR; converted from μg/mL; read-out: MIC
Experimental: (§2) In vitro MIC testing was performed according to the CLSI M27-A3 standard microbroth dilution methodology for the susceptibility testing of yeasts with minor modifications.

C. albicans ATCC 1003 = experiment: Antifungal MIC, CLSI M27-A3 microbroth dilution; format: cell-based, Candida albicans; conditions: Candida albicans, ATCC1003; C. albicans ATCC 1003; converted from μg/mL; read-out: MIC
Experimental: as §2

C. albicans ATCC 90819 = experiment: Antifungal MIC, CLSI M27-A3 microbroth dilution; format: cell-based, Candida albicans; conditions: Candida albicans, ATCC90819; C. albicans ATCC 90819, resistant to FLC, ITC, and VOR; converted from μg/mL; read-out: MIC
Experimental: as §2

C. albicans ATCC 2876 = experiment: Antifungal MIC, CLSI M27-A3 microbroth dilution; format: cell-based, Candida albicans; conditions: Candida albicans, ATCC2876; C. albicans ATCC 2876, susceptible to FLC, ITC, and VOR; converted from μg/mL; read-out: MIC
Experimental: as §2

C. albicans ATCC 1237 = experiment: Antifungal MIC, CLSI M27-A3 microbroth dilution; format: cell-based, Candida albicans; conditions: Candida albicans, ATCC1237, C. albicans ATCC 1237, resistant to FLC, ITC, and VOR; converted from μg/mL; read-out: MIC
Experimental: as §2

C. albicans ATCC 64124 = experiment: Antifungal MIC, CLSI M27-A3 microbroth dilution; format: cell-based, Candida albicans; conditions: Candida albicans, ATCC64124; C. albicans ATCC 64124, resistant to FLC, ITC, and VOR; converted from μg/mL; read-out: MIC
Experimental: as §2

C. albicans ATCC 10231 [3] = experiment: Antifungal MIC, CLSI M27-A3 microbroth dilution; format: cell-based, Candida albicans; conditions: Candida albicans, ATCC10231, C. albicans ATCC 10231, resistant to FLC, ITC, and VOR, read-out: MIC
Experimental: as §2

[4] = tested on: P. aeruginosa ATCC 27853 (strain I); format: cell-based
Experimental: (§3) The bacteria were grown in MH broth at 37° C. for these experiments. […] The resulting cultures were diluted 1:1000 and grown until the culture reached ˜300,000 cfu/mL. That culture was then further diluted 1:1000 and used to determine the next round of MIC values.

[5] = tested on: C. albicans strains (panel of seven); experiment: Antifungal MIC, summary over the panel; format: cell-based, Candida albicans
Experimental: In vitro MIC testing was performed according to the CLSI M27-A3 standard microbroth dilution methodology for the susceptibility testing of yeasts with minor modifications. […] MIC values were read visually for all tested compounds, and the endpoint was determined as the minimum concentration of compound that yielded complete inhibition relative to growth control.

C. albicans ATCC 10231 [6] = format: cell-based, Candida albicans
VRE (strain D) = format: cell-based, enterococcus
Experimental: as §3

[7] = tested on: L. monocytogenes ATCC 19115 (strain B); format: cell-based, Listeria monocytogenes
Experimental: as §3

MRSA (strain C) = format: cell-based, Staphylococcus aureus
Experimental: as §3

[8] = after 15 serial passages at sub-inhibitory concentrations

C/C(=N\NC(=N)N)c1ccc2c(c1)Cc1cc(/C(C)=N/NC(=N)N)ccc1-2.Cl.Cl [Compound 4F, (2E,2′E)-2,2′-((9H-Fluorene-2,7-diyl)bis(ethan-1-yl-1-ylidene))bis(hydrazine-1-carboximidamide) dihydrochloride]
MIC (B. subtilis 168; converted from μM): 3.4 µg/mL
MIC (B. subtilis 168; range 0.5 to 500 μM): 7.8 µM
MIC (VRE): 0.4 µg/mL
MIC (E. coli MC1061; converted from μM): 218 µg/mL
MIC (E. coli MC1061; range 0.5 to 500 μM): 500 µM
MIC (M. smegmatis MC2-155): 0.4 µg/mL
MIC (S. enterica ATCC 14028; converted from μM): 1.7 µg/mL
MIC (S. enterica ATCC 14028; range 0.5 to 500 μM): 3.9 µM
MIC ([1]; converted from μM): < 0.2 µg/mL
MIC ([1]; range 0.5 to 500 μM): < 0.5 µM
MIC (P. aeruginosa ATCC 27853; converted from μM): 0.4 to 0.9 µg/mL
MIC (P. aeruginosa ATCC 27853; range 0.5 to 500 μM): 1 to 2 µM
MIC (K. pneumoniae ATCC 27736; converted from μM): 13.6 to 27.2 µg/mL
MIC (K. pneumoniae ATCC 27736; range 0.5 to 500 μM): 31.3 to 62.5 µM
MIC (MRSA; converted from μM): 0.4 to 0.9 µg/mL
MIC (MRSA; range 0.5 to 500 μM): 1 to 2 µM
intracellular ROS production (C. albicans ATCC 10231 [2]): significantly increased intracellular ROS production
MIC (C. albicans ATCC 2310): 2.3 µM
MIC (C. albicans ATCC 1003): 2.3 µM
MIC (C. albicans ATCC 90819): 4.6 µM
MIC (C. albicans ATCC 2876): 2.3 µM
MIC (C. albicans ATCC 1237): 4.6 µM
MIC (C. albicans ATCC 64124): 2.3 µM
MIC (C. albicans ATCC 10231 [3]; converted from μg/mL): 2.3 to 4.6 µM
MIC (C. albicans ATCC 10231 [3]): 1 to 2 µg/mL
increase in relative MIC values [4, 8]: one-fold
development of resistance (passages after which resistance developed) ([4]; up to 15 passages): did not develop resistance
MIC ([5]; Candida albicans, all, most or majority of the fungal strains, read-out: MIC, span over C. albicans strains): 1 to 3.9 µg/mL
antifungal activity in words ([5]; against all fungal strains tested): excellent antifungal activities
shift in relative MIC values (C. albicans ATCC 10231 [6]; after 13 passages, sub-MIC drug concentrations): 2 fold
development of drug resistance (C. albicans ATCC 10231 [6]; repeated treatments with sub-MIC drug concentrations): unable to develop drug resistance
increase in relative MIC values (VRE (strain D); [8]): one-fold
development of resistance (passages after which resistance developed) (VRE (strain D); up to 15 passages): did not develop resistance
increase in relative MIC values [7, 8]: one-fold
development of resistance (passages after which resistance developed) ([7]; up to 15 passages): did not develop resistance
increase in relative MIC values (MRSA (strain C); [8]): one-fold
development of resistance (passages after which resistance developed) (MRSA (strain C); up to 15 passages): did not develop resistance
